Peptide text beside a SMILES is read from it.
Test system: serum calcium concentration
Conditions: rat, in vivo, sc
Experimental: Biological Assay of Calcitonin Analogs in Vivo
The biological potency of 8-glycine, 16-alanine des-19-leucine salmon calcitonin was determined by comparing the reduction of serum calcium concentration which followed administration by graded doses of Gly^8, Ala^16, des-Ley^19-SCT and synthetic salmon calcitonin standard. Rats were divided into four groups of seven animals, and each group was assigned at random to a dose of standard or test solution. Low and high doses were chosen from the linear portion of the dose-response curve. For the salmon calcitonin standard, the values were 0.7 and 2.1 ng. peptide/100 g. […] This does approximates 3 and 9 MU/100 g. […] Peptides were given by subcutaneous injection (0.2 ml/100 g. BW) and blood was withdrawn 1 hour later for serum calcium determination. Sera are processed and analyzed within two hours of collection.

`CC(C)C[C@H](NC(=O)CNC(=O)[C@@H]1CSSC[C@H](N)C(=O)N[C@@H](CO)C(=O)N[C@@H](CC(N)=O)C(=O)N[C@@H](CC(C)C)C(=O)N[C@@H](CO)C(=O)N[C@@H]([C@@H](C)O)C(=O)N1)C(=O)NCC(=O)N[C@@H](CCCCN)C(=O)N[C@@H](CC(C)C)C(=O)N[C@@H](CO)C(=O)N[C@@H](CCC(N)=O)C(=O)N[C@@H](CCC(=O)O)C(=O)N[C@@H](C)C(=O)N[C@@H](Cc1c[nH]cn1)C(=O)N[C@@H](CCCCN)C(=O)N[C@@H](CCC(N)=O)C(=O)N[C@H](C(=O)N[C@@H](Cc1ccc(O)cc1)C(=O)N1CCC[C@H]1C(=O)N[C@@H](CCCNC(=N)N)C(=O)N[C@H](C(=O)N[C@@H](CC(N)=O)C(=O)N[C@H](C(=O)NCC(=O)N[C@@H](CO)C(=O)NCC(=O)N[C@H](C(=O)N1CCC[C@H]1C(N)=O)[C@@H](C)O)[C@@H](C)O)[C@@H](C)O)[C@@H](C)O` [Gly^8, Ala^16, des-Leu'^9-SCT, [8-Glycine, 16-Alanine, des-19-Leucine] salmon calcitonin] (HELM PEPTIDE1{C.S.N.L.S.T.C.G.L.G.K.L.S.Q.E.A.H.K.Q.T.Y.P.R.T.N.T.G.S.G.T.P.[am]}$PEPTIDE1,PEPTIDE1,1:R3-7:R3$$$V2.0) was tested, and the biological potency was 2,500 IU/mg.

— patent EP0324130A2, “8-Glycine, 16-X, Des-19-Leucine-Calcitonin” (RORER INTERNATIONAL (OVERSEAS) INC. (a Delaware corporation), priority 1987, dated 1989)
